The values that follow come from patent US5798361A, “5H-thiazolo[3,2-a]pyrimidin-5-one derivatives” (Ferrer Internacional, S.A., priority 1995, dated 1998).

Usually ED50 stands for the dose at which the effect has come halfway, by size or by number of responders. Higher therefore signals a need for a large dose. One may read the IC50 as the midpoint of a concentration-inhibition curve. A lower IC50 goes with higher potency.

Data set [1] in a line: Catalepsy by oral route in Sprague-Dawley rats. Format: in vivo. To be noted: for ED50: rat, in vivo, oral, Sprague-Dawley rats, 50% of treated animals showed catalepsy; for R (Catalepsy/Climbing): ratio of ED50 values.
Data set [2] concerns the target T1, 5HT2 receptors (Mus musculus, UniProt P35363).
T1 construct: Male N.M.R.I. mice weighing 22-26 g were used; from tissue; host or cells: living male N.M.R.I. mice (whole animal, endogenous receptor)
Put plainly: Inhibition of DOI-induced head twitches and scratches. The class given is in vivo, Male N.M.R.I. mice. To be noted: p.o., mice, DOI 3 mg/kg i.p. at 60 min. As for the experimental part: (§1) The inhibiton test of apomorphine-induced climbing behaviour and the inhibition test of DOI-induced head twitches and scratches are hereinafter described.
Inhibition of DOI-induced head twitches and scratches
Male N.M.R.I. mice weighing 22-26 g were used. After the animals were weighed, they were individually placed in transparent cages two hours prior to experiment. Test compound was given p.o. at time 0. The administration interval time between mice was 5 min. At time 60 min DOI at the dose of 3 mg/kg i.p. dissolved in saline was administered. The number of head twitches and scratches were assessed as well as the presence or absence of escape attempts.

For another data set, the target named is T2, D2 receptors (Rattus norvegicus, UniProt P61169).
T2 construct: membrane corresponding to 20 mg of rat striatum; from tissue; host or cells: rat striatum membrane
T2 sequence (P61169 whole entry): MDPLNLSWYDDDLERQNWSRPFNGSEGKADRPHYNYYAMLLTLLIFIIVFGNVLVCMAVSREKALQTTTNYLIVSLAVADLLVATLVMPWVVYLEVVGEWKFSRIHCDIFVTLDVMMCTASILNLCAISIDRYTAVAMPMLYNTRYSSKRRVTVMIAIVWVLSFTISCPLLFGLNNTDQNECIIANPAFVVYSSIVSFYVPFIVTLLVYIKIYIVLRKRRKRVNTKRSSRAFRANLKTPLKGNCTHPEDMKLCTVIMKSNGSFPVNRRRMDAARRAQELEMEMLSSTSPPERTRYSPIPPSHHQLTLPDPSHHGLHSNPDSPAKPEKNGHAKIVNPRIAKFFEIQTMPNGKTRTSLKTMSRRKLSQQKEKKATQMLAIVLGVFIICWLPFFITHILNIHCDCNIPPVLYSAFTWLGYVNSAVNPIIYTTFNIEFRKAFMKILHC
As to the kind of experiment: Specific binding to D2 receptors ([3H]spiperone, rat striatum membrane). Conditions: for IC50: [3H]spiperone 2 nM, rat striatum membrane, 20 min, 35° C., pH 7.4; for D2/5HT2 ratio: ratio of IC50 values, D2 over 5HT2. As for the experimental part: (§2) Specific binding to D2 and 5HT2 receptors was tested as follows:
D2 receptors: A 2-nM solution of radioactive spiperone ([^3 H]spiperone), which acts as a specific ligand, was incubated with the membrane corresponding to 20 mg of rat striatum for 20 min at 35° C. buffered at pH 7.4 with Tris.HCl. The non-specific binding was then determined by addition of a micromolar concentration of unlabelled spiperone. […] After the incubation was completed, the sample was filtered through a glass fiber filter and then washed three times with Tris.HCl buffer. The amount of receptor-bound radioactivity was retained on the membrane and determined by liquid scintillation counting.

Data set [3] addresses T3, 5HT2 receptors (Rattus norvegicus, UniProt P14842).
T3 construct: membrane corresponding to 1 mg of rat cortex; from tissue; host or cells: rat cortex membrane
As to the kind of experiment: Specific binding to 5HT2 receptors ([3H]ketanserin, rat cortex membrane). To be noted: [3H]ketanserin 0.5 nM, 30 min, 35° C., pH 7.4. The method, then: as §2
5HT2 receptors: A 0.5 nM solution of radioactive ketanserin ([^3 H]ketanserin), which acts as a specific ligand, was incubated with the membrane corresponding to 1 mg of rat cortex for 30 min at 35° C. buffered at pH 7.4 with Tris.HCl. Non-specific binding was then determined by addition of 5 micromolar concentration of unlabelled mianserin. IC50 (inhibitory concentration 50%) was calculated from the inhibition rate of the specific binding obtained by addition of eleven different concentrations of the compounds to be tested. After the incubation was completed, the sample was filtered through a glass fiber filter and then washed three times with Tris.HCl buffer. The amount of receptor-bound radioactivity was retained on the membrane and determined by liquid scintillation counting.

The test system of data set [4] is apomorphine-induced climbing behaviour. As to the kind of experiment: Inhibition of apomorphine-induced climbing behaviour. Conditions: Mus musculus, 1 h; oral, mice, apomorphine 1 mg/kg s.c. at 60 min. The class given is in vivo, Male Swiss mice. The method, then: as §1
Inhibition of aoomorphine-induced climbing behaviour
Male Swiss mice weighing 22-24 g were used. One week prior to experiment, animals were kept in our facilities at a temperature of 20°-22° C. and 12/12 h light-dark cycle, and had free access to food and water. Two hours prior to experiment, the animals were placed in individual cages without access to food.
Animals were administered orally with test drug or 0.25% agar at time 0. After 60 minutes, apomorphine was subcutaneously injected at a dose of 1 mg/kg, and after further 70 minutes the animal's behaviour was assessed. Two additional assessments were performed at 10-min intervals. For assessment, each animal was placed on the bottom of a small upright box (11×7.5×4.5 cm). The walls of the box were made of translucent methacrylate except one of the lateral surfaces (7.5 cm wide) which was a 3-mm wire mesh. The position of the animal was scored for 2 minutes according to the following criteria: 0=four paws on the floor; 1=three paws on the floor; 2=two paws on the floor; 3=one paw on the floor; and 4=four paws holding the wire mesh. If an animal keeps several positions within the 2-min observation, the seconds elapsed in each position will be recorded. Finally, mean scoring was calculated.

T1 sequence (P35363 whole entry): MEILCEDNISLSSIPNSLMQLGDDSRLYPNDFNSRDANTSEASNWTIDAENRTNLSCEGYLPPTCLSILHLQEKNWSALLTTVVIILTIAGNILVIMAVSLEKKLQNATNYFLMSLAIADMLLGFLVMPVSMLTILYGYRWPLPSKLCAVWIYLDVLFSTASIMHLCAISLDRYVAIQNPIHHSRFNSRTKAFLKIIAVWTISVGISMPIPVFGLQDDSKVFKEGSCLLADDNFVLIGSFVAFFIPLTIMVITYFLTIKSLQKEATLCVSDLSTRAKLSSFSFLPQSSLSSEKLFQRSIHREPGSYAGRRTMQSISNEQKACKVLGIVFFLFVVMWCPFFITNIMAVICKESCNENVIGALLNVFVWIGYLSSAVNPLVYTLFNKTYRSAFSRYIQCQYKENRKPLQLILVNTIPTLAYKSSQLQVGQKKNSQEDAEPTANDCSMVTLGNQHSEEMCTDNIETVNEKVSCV
T3 sequence (P14842 whole entry): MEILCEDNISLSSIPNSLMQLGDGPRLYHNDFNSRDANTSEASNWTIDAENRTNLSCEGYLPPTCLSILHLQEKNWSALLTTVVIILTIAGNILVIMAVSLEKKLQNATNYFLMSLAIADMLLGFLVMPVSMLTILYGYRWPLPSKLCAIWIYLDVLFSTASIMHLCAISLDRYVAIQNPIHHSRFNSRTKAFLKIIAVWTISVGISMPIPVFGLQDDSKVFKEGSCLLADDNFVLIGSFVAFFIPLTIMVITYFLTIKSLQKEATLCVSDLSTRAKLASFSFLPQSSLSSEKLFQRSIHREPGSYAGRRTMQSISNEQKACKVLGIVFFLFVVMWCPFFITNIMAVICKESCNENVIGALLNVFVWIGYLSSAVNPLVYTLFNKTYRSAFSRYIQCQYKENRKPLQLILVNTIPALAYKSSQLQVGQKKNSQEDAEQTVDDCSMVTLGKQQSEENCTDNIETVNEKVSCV

Consider `COc1ccc(-c2csc3nc(C)c(CCN4CCC(C(=O)c5ccc(F)cc5)CC4)c(=O)n23)cc1` [Example 28], for which, in data set [1], the ED50 was over 50 mg/kg and the “R (Catalepsy/Climbing)” value was over 2.0. The “ED50 DOI” value on 5HT2 receptors [2] was determined as 0.60 mg/kg. At D2 receptors, the IC50 turned out to be 79.9 nM and the D2/5HT2 ratio turned out to be 9.7. This compound also had a half-inhibitory concentration (IC50) at 5HT2 receptors [3] of 8.26 nM. The compound also gave an ED50 in data set [4] of 24.6 mg/kg.
Take `Cc1cccc(-c2csc3nc(C)c(CCN4CCC(c5noc6cc(F)ccc56)CC4)c(=O)n23)c1` [Example 23]: on D2 receptors, the IC50 was 22.3 nM and the D2/5HT2 ratio turned out to be 0.7. For the same compound, the IC50 at 5HT2 receptors [3] came to 32.1 nM.
Take `Cc1nc2scc(-c3ccc(F)cc3)n2c(=O)c1CCN1CCC(c2noc3cc(F)ccc23)CC1` [Example 14, 6-[2-[4-(6-fluoro-1,2-benzisoxazol-3-yl)-1-piperidinyl]ethyl]-3-(4-fluorophenyl)-7-methyl-5H-thiazolo[3,2-a]pyrimidin-5-one]: in data set [1], the median effective dose (ED50) came to 9.3 mg/kg and the “R (Catalepsy/Climbing)” value amounted to 3.2. Also, the “ED50 DOI” value on 5HT2 receptors [2] is given as 0.28 mg/kg. On D2 receptors, the IC50 worked out at 19.7 nM and the D2/5HT2 ratio is reported as 6.2. The IC50 at 5HT2 receptors [3] was 3.18 nM. In data set [4], this compound registered an ED50 of 2.9 mg/kg.
In the case of `COc1cccc(-c2csc3nc(C)c(CCN4CCC(c5noc6cc(F)ccc56)CC4)c(=O)n23)c1` [Example 22], in data set [1], the 50% effect level (ED50) was put at a dose of 40 mg/kg and the “R (Catalepsy/Climbing)” value was 2.1. At 5HT2 receptors [2], the “ED50 DOI” value was 1.10 mg/kg. Moreover, on D2 receptors, the IC50 worked out at 28 nM and the D2/5HT2 ratio is given as 3.8. On 5HT2 receptors [3], the IC50 was determined as 7.46 nM. In data set [4], this compound registered an ED50 of 19 mg/kg.
On to `Cc1nc2scc(-c3cccc(Cl)c3)n2c(=O)c1CCN1CCC(c2noc3cc(F)ccc23)CC1` [Example 21], for which the figures for the IC50 at D2 receptors and at 5HT2 receptors [3] were 16.6 nM and 24.5 nM, respectively. At D2 receptors, the D2/5HT2 ratio is listed as 0.7.
Regarding `Cc1nc2scc(-c3ccccc3F)n2c(=O)c1CCN1CCC(c2noc3cc(F)ccc23)CC1` [Example 26], the ED50 in data set [1] and in data set [4] was over 50 mg/kg throughout. For the same compound, on 5HT2 receptors [2], the “ED50 DOI” value amounted to 0.42 mg/kg. Further, the IC50 at D2 receptors amounted to 82 nM; on 5HT2 receptors [3], 3.51 nM. At D2 receptors, the D2/5HT2 ratio amounted to 23.4.
As for `O=C(CCCN1CCC(O)(c2ccc(Cl)cc2)CC1)c1ccc(F)cc1` [Haloperidol, reference compound], the ED50 in data set [1] came out at 1.95 mg/kg; in data set [4], 1.2 mg/kg.
For `Cc1nc2scc(-c3ccc(Cl)c(Cl)c3)n2c(=O)c1CCN1CCC(c2noc3cc(F)ccc23)CC1` [Example 20], the IC50 came to 19.4 nM on D2 receptors and 35.2 nM at 5HT2 receptors [3]. Besides, the D2/5HT2 ratio at D2 receptors stood at 0.6.
Turning to `Cc1nc2scc(-c3ccc4c(c3)OCO4)n2c(=O)c1CCN1CCC(c2noc3cc(F)ccc23)CC1` [Example 18], the ED50 was 20 mg/kg in data set [1] and 7.7 mg/kg in data set [4]. Also, in data set [1], the “R (Catalepsy/Climbing)” value came to 2.6. The “ED50 DOI” value on 5HT2 receptors [2] turned out to be 0.80 mg/kg. Moreover, the IC50 at D2 receptors amounted to 17.3 nM; on 5HT2 receptors [3], 7.63 nM. Besides, the D2/5HT2 ratio on D2 receptors was 2.3.
Consider `Cc1ccc(-c2csc3nc(C)c(CCN4CCC(c5noc6cc(F)ccc56)CC4)c(=O)n23)cc1` [Example 17, 6-[2-[4-(6-fluoro-1,2-benzisoxazol-3-yl)-1-piperidinyl]ethyl]-3-(4-methylphenyl)-7-methyl-5H-thiazolo[3,2-a]pyrimidin-5-one], for which the ED50 in data set [1] came out at 22.5 mg/kg; in data set [4], 3.9 mg/kg. For the same compound, in data set [1], the “R (Catalepsy/Climbing)” value is reported as 5.8. Further, on 5HT2 receptors [2], the “ED50 DOI” value is listed as 0.57 mg/kg. For the same compound, the values for the IC50 on D2 receptors and at 5HT2 receptors [3] were 36.4 nM and 14.9 nM, respectively. The D2/5HT2 ratio at D2 receptors was 2.4.
Turning to `Cc1nc2scc(-c3ccc(Cl)cc3)n2c(=O)c1CCN1CCC(c2noc3cc(F)ccc23)CC1` [Example 19], in data set [1], the 50% effect level (ED50) was put at a dose of 9.5 mg/kg and the “R (Catalepsy/Climbing)” value came out at 2.7. Also, on 5HT2 receptors [2], the “ED50 DOI” value was 0.82 mg/kg. In addition, on D2 receptors, the IC50 stood at 43.6 nM and the D2/5HT2 ratio was 3.9. The IC50 at 5HT2 receptors [3] came out at 11.1 nM. The ED50 in data set [4] came out at 3.5 mg/kg.
Take `Cc1nc2scc(-c3cccc(C(F)(F)F)c3)n2c(=O)c1CCN1CCC(c2noc3cc(F)ccc23)CC1` [Example 25]: on D2 receptors, the IC50 amounted to 20.9 nM and the D2/5HT2 ratio was 0.3. At 5HT2 receptors [3], this compound gave an IC50 of 83.3 nM.
With `COc1ccc(-c2csc3nc(C)c(CCN4CCC(c5noc6cc(F)ccc56)CC4)c(=O)n23)cc1` [Example 16, 6-[2-[4-(6-fluoro-1,2-benzisoxazol-3-yl)-1-piperidinyl]ethyl]-3-(4-methoxyphenyl)-7-methyl-5H-thiazolo[3,2-a]pyrimidin-5-one], in data set [1], the ED50 was determined as 30 mg/kg and the “R (Catalepsy/Climbing)” value turned out to be 4.1. Moreover, at 5HT2 receptors [2], the “ED50 DOI” value is reported as 0.84 mg/kg. Besides, on D2 receptors, the IC50 came out at 42.1 nM and the D2/5HT2 ratio is given as 5.1. The compound also gave an IC50 on 5HT2 receptors [3] of 8.32 nM. The compound also displayed an ED50 in data set [4] of 7.4 mg/kg.
Regarding `Cc1nc2scc(-c3ccccc3Cl)n2c(=O)c1CCN1CCC(c2noc3cc(F)ccc23)CC1` [Example 24], the ED50 in data set [1] and in data set [4] was over 50 mg/kg throughout. Further, on 5HT2 receptors [2], the “ED50 DOI” value amounted to 1.50 mg/kg. Besides, the figures for the IC50 at D2 receptors and at 5HT2 receptors [3] were 29.2 nM and 29.5 nM, respectively. Moreover, the D2/5HT2 ratio on D2 receptors came out at 1.0.
`Cc1nc2scc(-c3ccccc3)n2c(=O)c1CCN1CCC(C(=O)c2ccc(F)cc2)CC1` [Example 27]: the median effective dose (ED50) in data set [1] and in data set [4] was over 50 mg/kg each time. On 5HT2 receptors [2], the “ED50 DOI” value was determined as 1.20 mg/kg. In addition, the concentration for half-maximal inhibition (IC50) on D2 receptors was found to be 174 nM; on 5HT2 receptors [3], 12.5 nM. Also, the D2/5HT2 ratio on D2 receptors worked out at 13.9.
`Cc1nc2scc(-c3ccccc3)n2c(=O)c1CCN1CCC(c2noc3cc(F)ccc23)CC1` [Example 15, 6-[2-[4-(6-fluoro-1,2-benzisoxazol-3-yl)-1-piperidinyl]ethyl]-3-phenyl-7-methyl-5H-thiazolo[3,2-a]pyrimidin-5-one]: in data set [1], the ED50 was 16 mg/kg and the “R (Catalepsy/Climbing)” value is reported as 1.1. The “ED50 DOI” value at 5HT2 receptors [2] is 0.58 mg/kg. At D2 receptors, the IC50 was determined as 44.1 nM and the D2/5HT2 ratio came out at 11.2. For the same compound, the IC50 on 5HT2 receptors [3] amounted to 3.94 nM. For the same compound, the ED50 in data set [4] is 14.7 mg/kg.
